Test results taken from patent publication US20100311714A1, “1H-IMIDAZO[4,5-c]QUINOLINONE COMPOUNDS” (priority 2009, published 2010).

Target: T1, PI3K alfa (Homo sapiens, UniProt P42336)
T1 construct: His tag (C); made in house; host or cells: baculovirus BV1075; Tn5 (Trichoplusia ni) or TiniPro insect cells
Assay: PI3K alpha kinase assay (Kinase-Glo luminescence)
Type: biochemical
Settings: read-out: EPK_PI3Kalfa/IC50
Experimental: In a more preferred assay, the kinase reaction is performed in a final volume of 10 μL per well of a low volume non binding CORNING, 384 well black plate (Cat. No. #3676). The final concentrations of ATP and phosphatidyl inositol (PI) in the assay are 1 μM and 10 μg/mL respectively. The reaction is started by the addition of ATP.
The components of the assay are added per well as follows:
50 nL test compounds in 90% DMSO per well, in columns 1-20, 8 concentrations (⅓ and 1/3.33 serial dilution step) in single. • Low control: […] of 90% DMSO in half the wells of columns 23-24 (0.45% in final). • High control: 50 nL of reference compound (e.g. compound of Example 7 in WO 2006/122806) in the other half of columns 23-24 (2.5 μM in final). • Standard: 50 nL of reference compound as just mentioned diluted as the test compounds in columns 21-22 • 20 mL ‘buffer’ are prepared per assay: • 200 μL of 1M TRIS HCl pH7.5 (10 mM in final) • 60 μL of 1M MgCl2 (3 mM in final) • 500 μL of 2M NaCl (50 mM in final) • 100 μL of 10% CHAPS (0.05% in final) • 200 μL of 100 mM DTT (1 mM in final) • 18.94 mL of nanopure water • 10 mL ‘PI’ are prepared per assay: • 200 μL of 1 mg/ml L-alpha-Phosphatidylinositol (Liver Bovine, Avanti Polar Lipids Cat. No. 840042C MW=909.12) prepared in 3% OctylGlucoside (10 μg/ml in final) • 9.8 mL of ‘buffer’ • 10 mL ‘ATP’ are prepared per assay: • 6.7 μL of 3 mM stock of ATP giving a final concentration of 1 μM per well • 10 mL of ‘buffer’ • 2.5 mL of each PI3K construct are prepared per assay in ‘PI’ with the following final concentration: • 10 nM PI3K alfa EMV B1075 • 25 nM beta EMV BV949 • 10 nM delta EMV BV1060 • 150 nM gamma EMV BV950 • 5 μL of ‘PI/PI3K’ are added per well. • 5 μl ‘ATP’ are added per well to start the reaction. • The plates are then incubated at room temperature for 60 minutes (alfa, beta, delta) or 120 minutes (gamma). • The reaction is terminated by the addition of 10 μL Kinase-Glo (Promega Cat. No. #6714). • The assay plates are read after 10 minutes in Synergy 2 reader (BioTek, Vermont USA) with an integration time of 100 milliseconds and sensitivity set to 191. • Output: The High control is around 60′000 counts and the Low control is 30′000 or lower • This luminescence assay gives a useful Z′ ratio between 0.4 and 0.7
Two different constructs, BV 1052 and BV 1075, are used to generate the PI3 Kinase α proteins for compound screening.
PI3K alpha is purified in three chromatographic steps: immobilized metal affinity chromatography on a Ni Sepharose resin (GE Healthcare, belonging to General Electric Company, Fairfield, Conn., USA), gel filtration utilizing a Superdex 200 26/60 column (GE Healthcare), and finally a cation exchange step on a SP-XL column (GE Healthcare). All buffers are chilled to 4° C. and lysis is performed chilled on ice. Column fractionation is performed rapidly at room temperature.
IC50 is determined by a four parameter curve fitting routine that comes along with “excel fit”. A 4 Parameter logistic equation is used to calculate IC50 values (IDBS XLfit) of the percentage inhibition of each compound at 8 concentrations (usually 10, 3.0, 1.0, 0.3, 0.1, 0.030, 0.010 and 0.003 μM). Alternatively, IC50 values are calculated using idbsXLfit model 204, which is a 4 parameter logistic model.

T1 sequence (P42336 with tags, fused parts or gaps limits assumed): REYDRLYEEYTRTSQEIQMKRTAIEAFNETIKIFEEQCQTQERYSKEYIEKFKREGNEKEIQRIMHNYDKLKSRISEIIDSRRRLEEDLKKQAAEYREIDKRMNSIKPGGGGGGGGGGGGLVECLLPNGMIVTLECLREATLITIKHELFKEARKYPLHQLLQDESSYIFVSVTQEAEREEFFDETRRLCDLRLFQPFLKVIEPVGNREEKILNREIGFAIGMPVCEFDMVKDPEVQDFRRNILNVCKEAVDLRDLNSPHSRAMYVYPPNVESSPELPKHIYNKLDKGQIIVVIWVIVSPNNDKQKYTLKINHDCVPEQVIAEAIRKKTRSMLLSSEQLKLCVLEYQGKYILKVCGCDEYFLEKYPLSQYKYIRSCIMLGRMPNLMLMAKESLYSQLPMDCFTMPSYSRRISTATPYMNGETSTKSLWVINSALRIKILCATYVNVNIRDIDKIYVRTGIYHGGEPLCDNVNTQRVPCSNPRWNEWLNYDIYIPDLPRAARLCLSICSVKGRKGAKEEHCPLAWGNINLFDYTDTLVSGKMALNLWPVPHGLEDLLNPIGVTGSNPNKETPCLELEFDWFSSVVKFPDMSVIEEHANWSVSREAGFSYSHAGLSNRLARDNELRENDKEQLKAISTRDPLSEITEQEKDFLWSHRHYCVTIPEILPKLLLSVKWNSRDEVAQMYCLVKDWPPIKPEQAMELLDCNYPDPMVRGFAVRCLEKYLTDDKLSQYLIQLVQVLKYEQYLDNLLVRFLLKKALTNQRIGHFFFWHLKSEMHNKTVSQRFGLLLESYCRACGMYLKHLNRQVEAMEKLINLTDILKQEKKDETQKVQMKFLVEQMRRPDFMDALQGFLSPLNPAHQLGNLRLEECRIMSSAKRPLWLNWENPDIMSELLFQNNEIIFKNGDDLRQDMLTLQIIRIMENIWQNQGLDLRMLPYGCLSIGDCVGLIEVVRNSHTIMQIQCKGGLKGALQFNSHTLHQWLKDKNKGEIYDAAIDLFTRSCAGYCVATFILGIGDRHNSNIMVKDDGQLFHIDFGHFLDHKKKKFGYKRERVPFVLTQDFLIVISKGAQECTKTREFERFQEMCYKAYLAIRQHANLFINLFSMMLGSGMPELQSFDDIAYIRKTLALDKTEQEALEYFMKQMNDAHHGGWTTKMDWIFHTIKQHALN

IC50 [nM] | Structure (SMILES)
75 | CCNc1ncc(-c2ccc3ncc4c(c3c2)n(-c2ccc(C(C)(C)O)nc2C)c(=O)n4C)cn1 [Example 31.7, 8-(2-Ethylamino-pyrimidin-5-yl)-1-[6-(1-hydroxy-1-methyl-ethyl)-2-methyl-pyridin-3-yl]-3-methyl-1,3-dihydro-imidazo[4,5-c]quinolin-2-one]
33 | COCc1ncc(-c2ccc3ncc4c(c3c2)n(-c2ccc(N3CCC3)nc2C)c(=O)n4C)cc1OC(C)C [Example 23.2, 1-(6-Azetidin-1-yl-2-methyl-pyridin-3-yl)-8-(5-isopropoxy-6-methoxymethyl-pyridin-3-yl)-3-methyl-1,3-dihydro-imidazo[4,5-c]quinolin-2-one]
17 | CNc1ncc(-c2ccc3ncc4c(c3c2)n(-c2ccc(N3CC[C@H](O)C3)nc2C)c(=O)n4C)cn1 [Example 32.1, 1-[6-((S)-3-Hydroxy-pyrrolidin-1-yl)-2-methyl-pyridin-3-yl]-3-methyl-8-(2-methylamino-pyrimidin-5-yl)-1,3-dihydro-imidazo[4,5-c]quinolin-2-one]
44 | COCc1ncc(-c2ccc3ncc4c(c3c2)n(-c2ccc(N3CCC3)nc2C)c(=O)n4C)cc1OC [Example 23.6, 1-(6-Azetidin-1-yl-2-methyl-pyridin-3-yl)-8-(5-methoxy-6-methoxymethyl-pyridin-3-yl)-3-methyl-1,3-dihydro-imidazo[4,5-c]quinolin-2-one]
5 | Cc1nc(N2CCN(C)C(=O)C2)ccc1-n1c(=O)n(C)c2cnc3ccc(-c4cnc(N)c(C(F)(F)F)c4)cc3c21 [Example 21.1, 8-(6-Amino-5-trifluoromethyl-pyridin-3-yl)-3-methyl-1-[2-methyl-6-(4-methyl-3-oxo-piperazin-1-yl)-pyridin-3-yl]-1,3-dihydro-imidazo[4,5-c]quinolin-2-one]
9 | CCNc1cc(-c2ccc3ncc4c(c3c2)n(-c2ccc(N3CC(O)C3)nc2C)c(=O)n4C)cnc1CO [Example 29.2, 8-(5-Ethylamino-6-hydroxymethyl-pyridin-3-yl)-1-[6-(3-hydroxy-azetidin-1-yl)-2-methyl-pyridin-3-yl]-3-methyl-1,3-dihydro-imidazo[4,5-c]quinolin-2-one]
31 | Cc1nc(C(C)(C)O)ccc1-n1c(=O)n(C)c2cnc3ccc(-c4cncc(C5(C#N)CCC5)c4)cc3c21 [Example 31.8, 1-(5-{1-[6-(1-Hydroxy-1-methyl-ethyl)-2-methyl-pyridin-3-yl]-3-methyl-2-oxo-2,3-dihydro-1H-imidazo[4,5-c]quinolin-8-yl}-pyridin-3-yl)-cyclobutanecarbonitrile]
33 | Cc1nc(N2CCC2)ccc1-n1c(=O)n(C)c2cnc3ccc(-c4cncc(OC(C)C)c4)cc3c21 [Example 23.9, 1-(6-Azetidin-1-yl-2-methyl-pyridin-3-yl)-8-(5-isopropoxy-pyridin-3-yl)-3-methyl-1,3-dihydro-imidazo[4,5-c]quinolin-2-one]
84 | CCOc1ccc(-c2ccc3ncc4c(c3c2)n(-c2ccc(C(C)(C)O)nc2C)c(=O)n4C)cn1 [Example 31.4, 8-(6-Ethoxy-pyridin-3-yl)-1-[6-(1-hydroxy-1-methyl-ethyl)-2-methyl-pyridin-3-yl]-3-methyl-1,3-dihydro-imidazo[4,5-c]quinolin-2-one]
23 | CNc1ncc(-c2ccc3ncc4c(c3c2)n(-c2ccc(C(C)(C)O)nc2C)c(=O)n4C)cc1F [Example 31.1, 8-(5-Fluoro-6-methylamino-pyridin-3-yl)-1-[6-(1-hydroxy-1-methyl-ethyl)-2-methyl-pyridin-3-yl]-3-methyl-1,3-dihydro-imidazo[4,5-c]quinolin-2-one]
64 | Cc1ncccc1-n1c(=O)n(C)c2cnc3ccc(-c4cncc(N)c4)cc3c21 [Example 2.25, 8-(5-Amino-pyridin-3-yl)-3-methyl-1-(2-methyl-pyridin-3-yl)-1,3-dihydro-imidazo[4,5-c]quinolin-2-one]
2 | Cc1nc(C(C)(C)O)ccc1-n1c(=O)n(C)c2cnc3ccc(-c4cncc(C(C)(C)C#N)c4)cc3c21 [Example 31.6, 2-(5-{1-[6-(1-Hydroxy-1-methyl-ethyl)-2-methyl-pyridin-3-yl]-3-methyl-2-oxo-2,3-dihydro-1H-imidazo[4,5-c]quinolin-8-yl}-pyridin-3-yl)-2-methyl-propionitrile]

Same assay, conditions: read-out: PI3Kalfa/IC50

Structure (SMILES) | IC50 [nM]
CCOc1ccc(-c2ccc3ncc4c(c3c2)n(-c2ncccc2C)c(=O)n4C)cn1 [Example 3.6, 8-(6-Ethoxy-pyridin-3-yl)-3-methyl-1-(3-methyl-pyridin-2-yl)-1,3-dihydro-imidazo[4,5-c]quinolin-2-one] | 206
CCOc1ncc(-c2ccc3ncc4c(c3c2)n(-c2ncccc2C)c(=O)n4C)cn1 [Example 3.1, 8-(2-Ethoxy-pyrimidin-5-yl)-3-methyl-1-(3-methyl-pyridin-2-yl)-1,3-dihydro-imidazo[4,5-c]quinolin-2-one] | 410
Cc1cccnc1-n1c(=O)n(C)c2cnc3ccc(-c4ccc(N(C)C)nc4)cc3c21 [Example 3.11, 8-(6-Dimethylamino-pyridin-3-yl)-3-methyl-1-(3-methyl-pyridin-2-yl)-1,3-dihydro-imidazo[4,5-c]quinolin-2-one] | 321
COc1ccc(-c2ccc3ncc4c(c3c2)n(-c2cccnc2C)c(=O)n4C)cc1OC [Example 2.9, 8-(3,4-Dimethoxy-phenyl)-3-methyl-1-(2-methyl-pyridin-3-yl)-1,3-dihydro-imidazo[4,5-c]quinolin-2-one] | 12
Cc1cccnc1-n1c(=O)n(C)c2cnc3ccc(-c4ccc(CO)nc4)cc3c21 [Example 3.9, 8-(6-Hydroxymethyl-pyridin-3-yl)-3-methyl-1-(3-methyl-pyridin-2-yl)-1,3-dihydro-imidazo[4,5-c]quinolin-2-one] | 383
COc1ccc(-c2ccc3ncc4c(c3c2)n(-c2ncccc2C)c(=O)n4C)cc1OC [Example 3.10, 8-(3,4-Dimethoxy-phenyl)-3-methyl-1-(3-methyl-pyridin-2-yl)-1,3-dihydro-imidazo[4,5-c]quinolin-2-one] | 57
Cc1ccncc1-n1c(=O)n(C)c2cnc3ccc(-c4ccc(CO)nc4)cc3c21 [Example 4.1, 8-(6-Hydroxymethyl-pyridin-3-yl)-3-methyl-1-(4-methyl-pyridin-3-yl)-1,3-dihydro-imidazo[4,5-c]quinolin-2-one] | 230
CNc1ncc(-c2ccc3ncc4c(c3c2)n(-c2ncccc2C)c(=O)n4C)cn1 [Example 3.4, 3-Methyl-8-(2-methylamino-pyrimidin-5-yl)-1-(3-methyl-pyridin-2-yl)-1,3-dihydro-imidazo[4,5-c]quinolin-2-one] | 80

Other lines, results leading:

IC50 [nM] | Structure (SMILES)
21 | CCOc1ccc(-c2ccc3ncc4c(c3c2)n(-c2cccnc2F)c(=O)n4C)cn1 [Example 6.1, 8-(6-Ethoxy-pyridin-3-yl)-1-(2-fluoro-pyridin-3-yl)-3-methyl-1,3-dihydro-imidazo[4,5-c]quinolin-2-one]
47 | CN(C)c1ccc(-c2ccc3ncc4c(c3c2)n(-c2cccnc2)c(=O)n4C)cn1 [Example 5.3, 8-(6-Dimethylamino-pyridin-3-yl)-3-methyl-1-pyridin-3-yl-1,3-dihydro-imidazo[4,5-c]quinolin-2-one]
74 | Cn1c(=O)n(-c2cccnc2)c2c3cc(-c4ccc(CO)nc4)ccc3ncc21 [Example 5.1, 8-(6-Hydroxymethyl-pyridin-3-yl)-3-methyl-1-pyridin-3-yl-1,3-dihydro-imidazo[4,5-c]quinolin-2-one]
